From US20240293337A1, “USE OF DOXERCALCIFEROL TO TREAT AND/OR PREVENT UTERINE FIBROIDS OR POLYCYSTIC OVARY SYNDROME” (priority 2023, published 2024)

How the values were obtained:
[1] = Body weight change in PDX UF mice; format: in vivo, NOD/SCID mice; conditions: 300 ng/kg i.p. 3 times per week, 6 weeks
Method: (§1) After xenograft mice undergo intraperitoneal injection of doxercalciferol (300 ng/kg, 3 times per week) or saline for 6 weeks. Body weight is monitored weekly during doxercalciferol treatment. Six weeks after doxercalciferol treatment insulin resistance is assessed using GTT and then mice are anesthetized and blood is collected to measure liver enzyme and AMH levels, ovary tissue is removed for histological analysis, total RNA is extracted for sequencing, and tumor size is measured with a digital caliper.

ovary = assay: Ovarian follicle counts in PDX UF mice (H&E histology); format: in vivo, NOD/SCID mice; conditions: vs untreated control
Method: as §1
Ovary tissue is collected and fixed in 4% paraformaldehyde. Tissue sections are stained with hematoxylin-eosin (H&E). Histological analyses are performed.

[2] = tested on: patient derived xenograft (PDX) mouse model of uterine fibroids (UF); assay: Differentially expressed gene (DEG) analysis by RNA sequencing in PDX UFs; format: in vivo, NOD/SCID mice; conditions: UFs treated with doxercalciferol compared to control
Method: as §1
Total RNA is extracted from PDX mice after doxercalciferol treatment. EdgeR is used to identify DEGs with p-values of (p)<0.01). GO and KEGG enrichment analysis are performed to determine the implication of the DEGs at the biologically functional level.

[3] = tested on: letrozole induced polycystic ovary syndrome (PCOS) mouse models; assay: Glucose tolerance test in PCOS mice; format: in vivo, C57BL/6 mice; conditions: 300 ng/kg i.p. 3 times per week, 120 minutes after IP glucose injection
Method: At 3.5 weeks of age, mice (n=11/group) are subcutaneously implanted with a placebo or 5 mg letrozole (LTZ) pellet (Innovative Research of America, Sarasota, FL, USA), which provides a constant release of LTZ (50 μg/day). Body weight is monitored weekly before and post-implantation. Body weight and insulin resistance (measured by glucose tolerance test, GTT) are used to monitor development of PCOS characteristics.
Five weeks after placebo or LTZ pellet implantation, mice undergo intraperitoneal injection of doxercalciferol (300 ng/kg) or saline 3 times per week for 6 weeks. Six weeks after doxercalciferol treatment, the mice are anesthetized and ovary, uterus, gonadal white fat, kidney, and liver tissue are collected. Each of these tissues are fixed in 4% paraformaldehyde for further histological analysis.
Glucose tolerance testing is performed on healthy, PCOS, and treated mice 3 weeks after doxercalciferol treatment. Mice are fasting for 16 h (5 p.m. to 9 a.m.), with free access to drinking water, after which they receive an intra-peritoneal (i.p.) injection of D-glucose (2.0 g/kg body weight). Blood glucose level is measured at 0, 15, 30, 60, 90, and 120 minutes following glucose injection using a Bayer glucose monitor (Roche Diagnostics Corp, IN, USA).

H295R cells = assay: H295R theca-like cells, cell morphology and cell number after 24 h treatment; format: cell-based, human; conditions: 100 nM
Method: Human adrenocortical-carcinoma cells (H295R cells) are used as an in vitro cell culture model of ovarian theca cells to assess androgen production. H295R cells are purchased from ATCC (Manassas, VA, USA, cat. no. ATCC® CRL-2128™) and cultured per the recommended guidelines. These cells are isolated from a donor. Briefly, H295R cells are cultured in flasks pre-coated with extracellular matrix (Gibco, USA, cat. no. S-006-100) with DMEM/F12 (Gibco, cat. no. 21041025) and 2.5% Nu-Serum (Corning, USA). The cells are subcultured at a ratio of 1:4, resulting in a cell density of approximately 3×10^6 in T75 flasks.
H295R cells are subcultured in T75 flasks for 24 hours. Cells are then treated for 24 hours with serum free basal media as a control or doxercalciferol at 1 nM, 10 nM, or 100 nM diluted in basal media (serum-free) at a 1:1 ratio. After the incubation period, cells are imaged and analyzed for morphology and cell count. Cells are then collected for analysis of steroidogenesis-related gene expression. Cell culture media are collected and used for testosterone quantification using ELISA based Testosterone Parameter Assay Kit (R&D system) per the manufacturer's protocol. The testosterone level is quantified using a multimode microplate reader system, Varioskan LUX Multimode Microplate Reader (Thermo Fisher).

For `C=C1/C(=C\C=C2/CCC[C@]3(C)[C@@H]([C@H](C)/C=C/[C@H](C)C(C)C)CC[C@@H]23)C[C@@H](O)C[C@@H]1O` [doxercalciferol], which “decrease in body weight” value [1] is on record?
The value was 24%.

What about the “number of follicles at the primordial, primary, secondary, or preantral phases” value (ovary) of the same compound?
The value was “does not significantly affect”.

And the “total number of follicles in the ovary” value (ovary)?
The value was “does not significantly affect”.

And the “ADRA1B fold change (FC)” value [2]?
Its value is −1.81.

What about the “ARGI fold change (FC)” value [2] of the same compound?
The value was −1.42.

What about the “DUSP1 fold change [FC]” value [2] of the same compound?
The value was 1.05.

And the “IL24 fold change (FC)” value [2]?
The value was 1.55.

What about the “number of DEGs” value ([2]; RNA sequencing) of the same compound?
Its value is 410.

What about the “number of down-regulated DEGs” value ([2]; RNA sequencing) of the same compound?
The value was 252.

And the “number of up-regulated DEGs” value ([2]; RNA sequencing)?
Its value is 158.

And the “blood glucose levels, vs control mice” value [3]?
The value was “elevated levels compared to control mice”.

And the “blood glucose levels, vs untreated PCOS mice” value [3]?
The value was “significantly lower blood glucose levels”.

And the cell morphology (H295R cells)?
The cell morphology was “most of the cells in the 100 nM doxercalciferol treatment group are dead”.

What about the cell number (H295R cells; vs other groups) of the same compound?
The cell number was “significantly fewer cells”.
